From ChEMBL document CHEMBL1154508, “Discovery of GSK345931A: An EP(1) receptor antagonist with efficacy in preclinical models of inflammatory pain” (Bioorg Med Chem Lett, 2009)

Tests used:
Thromboxane A2 receptor = biological target: T1, Thromboxane A2 receptor (Homo sapiens, UniProt P21731); assay: Binding affinity to TP receptor
T1 sequence (P21731 whole entry): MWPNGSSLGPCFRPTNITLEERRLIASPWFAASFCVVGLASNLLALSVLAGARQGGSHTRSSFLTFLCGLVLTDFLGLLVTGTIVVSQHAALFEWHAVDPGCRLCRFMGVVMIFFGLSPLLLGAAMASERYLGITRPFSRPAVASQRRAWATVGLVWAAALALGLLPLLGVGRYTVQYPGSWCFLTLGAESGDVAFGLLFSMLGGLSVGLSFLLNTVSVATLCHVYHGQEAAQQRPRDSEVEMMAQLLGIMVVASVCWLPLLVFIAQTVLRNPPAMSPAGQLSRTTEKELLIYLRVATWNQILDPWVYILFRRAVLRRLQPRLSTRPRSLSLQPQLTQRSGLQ

[1] = Ratio of drug level in brain to blood in complete Freund's adjuvant-induced rat inflammatory pain model 3 mg/kg, po after 1 hr; format: ADME, organism-based; parameters: dose 3 mg/kg, route oral
[2] = Solubility in fasted state simulated intestinal fluid after 24 hrs; format: physicochemical
[3] = Ratio of drug level in brain to blood in mouse at 3 mg/kg, po after 0.5 hr; format: ADME, organism-based; parameters: dose 3 mg/kg, route oral
[4] = biological target: T2, Peroxisome proliferator-activated receptor delta (Homo sapiens, UniProt Q03181); assay: Binding affinity PPARdelta
T2 sequence (Q03181 whole entry): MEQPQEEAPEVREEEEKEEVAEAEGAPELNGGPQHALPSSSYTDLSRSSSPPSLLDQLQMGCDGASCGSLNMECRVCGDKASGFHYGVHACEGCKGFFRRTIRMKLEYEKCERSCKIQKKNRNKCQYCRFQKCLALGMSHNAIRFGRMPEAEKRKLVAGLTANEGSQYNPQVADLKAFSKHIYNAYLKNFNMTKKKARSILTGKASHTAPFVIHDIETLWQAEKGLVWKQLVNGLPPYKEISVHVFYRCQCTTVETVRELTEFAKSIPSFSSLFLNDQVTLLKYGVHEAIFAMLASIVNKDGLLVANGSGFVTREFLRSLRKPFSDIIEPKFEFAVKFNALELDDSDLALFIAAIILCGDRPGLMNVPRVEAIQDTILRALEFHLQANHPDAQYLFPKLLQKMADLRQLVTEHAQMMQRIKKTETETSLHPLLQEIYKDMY

[5] = Solubility in fasted state simulated intestinal fluid after 2 hrs; format: physicochemical
[6] = Blood clearance in rat at 1 mg/kg, iv; format: ADME, organism-based; parameters: dose 1 mg/kg, route intravenous
Liver microsomes [7] = assay: Metabolic stability assessed as intrinsic clearance per gram of human liver microsomes; format: ADME, Microsome
[8] = biological target: T3, Peroxisome proliferator-activated receptor gamma (Homo sapiens, UniProt P37231); assay: Binding affinity to PPARgamma
T3 sequence (P37231 whole entry): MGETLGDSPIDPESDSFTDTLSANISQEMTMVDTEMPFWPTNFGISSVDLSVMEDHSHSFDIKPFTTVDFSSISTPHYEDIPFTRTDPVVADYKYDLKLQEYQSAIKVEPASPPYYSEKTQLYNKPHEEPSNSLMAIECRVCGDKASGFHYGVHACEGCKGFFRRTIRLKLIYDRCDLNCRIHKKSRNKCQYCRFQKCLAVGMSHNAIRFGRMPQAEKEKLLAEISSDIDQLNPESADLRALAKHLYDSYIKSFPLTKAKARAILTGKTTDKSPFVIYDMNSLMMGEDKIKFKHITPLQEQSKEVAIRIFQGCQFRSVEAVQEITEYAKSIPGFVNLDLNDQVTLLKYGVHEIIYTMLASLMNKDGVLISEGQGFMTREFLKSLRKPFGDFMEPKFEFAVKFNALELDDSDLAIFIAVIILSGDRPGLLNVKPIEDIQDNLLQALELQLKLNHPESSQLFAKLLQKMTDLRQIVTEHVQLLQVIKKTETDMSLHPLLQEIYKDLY

Blood = assay: Fraction unbound in rat blood; format: ADME, tissue-based
[9] = Drug level in blood of sub-chronic rat joint pain efficacy model satellite animal group at 20 mg/kg bid measured on day 1 after 1 hr post dose; format: ADME, organism-based; parameters: dose 20 mg/kg; conditions: read-out: Drug uptake
[10] = biological target: T4, Peroxisome proliferator-activated receptor alpha (Homo sapiens, UniProt Q07869); assay: Binding affinity to PPARalpha
T4 sequence (Q07869 whole entry): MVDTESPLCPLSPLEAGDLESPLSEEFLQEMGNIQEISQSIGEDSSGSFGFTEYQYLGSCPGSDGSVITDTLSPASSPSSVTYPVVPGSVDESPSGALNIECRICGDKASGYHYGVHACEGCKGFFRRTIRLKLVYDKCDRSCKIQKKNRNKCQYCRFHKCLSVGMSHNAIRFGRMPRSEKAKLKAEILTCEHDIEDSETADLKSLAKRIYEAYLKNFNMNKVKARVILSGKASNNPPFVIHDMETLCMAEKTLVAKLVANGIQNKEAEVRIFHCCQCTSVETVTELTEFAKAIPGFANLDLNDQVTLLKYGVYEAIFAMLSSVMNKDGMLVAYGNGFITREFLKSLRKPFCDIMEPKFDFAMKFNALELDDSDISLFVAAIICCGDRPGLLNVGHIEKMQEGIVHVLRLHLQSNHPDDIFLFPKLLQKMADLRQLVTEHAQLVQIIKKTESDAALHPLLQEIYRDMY

[11] = Oral bioavailability in cynomolgus monkey at 3 mg/kg; format: ADME, organism-based, Macaca fascicularis; conditions: in vivo
Liver microsomes [12] = assay: Metabolic stability assessed as intrinsic clearance per gram of rat liver microsomes; format: ADME, Microsome
[13] = Ratio of drug level in brain to blood in complete Freund's adjuvant-induced rat inflammatory pain model at 1 mg/kg, po after 1 hr; format: ADME, organism-based; parameters: dose 1 mg/kg, route oral
[14] = Volume of distribution at steady state in rat at 1 mg/kg, iv; format: ADME, organism-based; parameters: dose 1 mg/kg, route intravenous; conditions: in vivo, read-out: Vdss
[15] = biological target: T3, Peroxisome proliferator-activated receptor gamma; assay: Activity at PPARgamma
[16] = biological target: T5, Prostaglandin E2 receptor EP1 subtype (Homo sapiens, UniProt P34995); assay: Binding affinity to EP1 receptor
T5 sequence (P34995 whole entry): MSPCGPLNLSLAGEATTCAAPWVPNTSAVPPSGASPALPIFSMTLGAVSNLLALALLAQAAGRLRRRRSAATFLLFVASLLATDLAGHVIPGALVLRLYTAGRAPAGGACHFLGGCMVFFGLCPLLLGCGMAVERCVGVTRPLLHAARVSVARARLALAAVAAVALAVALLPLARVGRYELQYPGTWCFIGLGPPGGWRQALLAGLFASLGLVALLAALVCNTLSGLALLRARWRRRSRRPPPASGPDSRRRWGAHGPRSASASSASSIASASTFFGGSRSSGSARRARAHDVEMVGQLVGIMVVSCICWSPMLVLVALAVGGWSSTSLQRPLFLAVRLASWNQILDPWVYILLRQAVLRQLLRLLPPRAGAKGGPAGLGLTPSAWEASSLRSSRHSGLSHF

[17] = Half life in rat at 1 mg/kg, iv; format: ADME, organism-based; parameters: dose 1 mg/kg, route intravenous; conditions: in vivo
[18] = biological target: Prostaglandin F2-alpha receptor (Homo sapiens, UniProt P43088); assay: Activity at PGF2alpha receptor by FLIPR method
[19] = Ratio of drug level in brain to blood of sub-chronic rat joint pain efficacy model treatment group at 5 mg/kg bid measured on day 5 after 1 hr post dose; format: ADME, organism-based; parameters: dose 5 mg/kg

Prostaglandin F2-alpha receptor, sequence (P43088 whole entry): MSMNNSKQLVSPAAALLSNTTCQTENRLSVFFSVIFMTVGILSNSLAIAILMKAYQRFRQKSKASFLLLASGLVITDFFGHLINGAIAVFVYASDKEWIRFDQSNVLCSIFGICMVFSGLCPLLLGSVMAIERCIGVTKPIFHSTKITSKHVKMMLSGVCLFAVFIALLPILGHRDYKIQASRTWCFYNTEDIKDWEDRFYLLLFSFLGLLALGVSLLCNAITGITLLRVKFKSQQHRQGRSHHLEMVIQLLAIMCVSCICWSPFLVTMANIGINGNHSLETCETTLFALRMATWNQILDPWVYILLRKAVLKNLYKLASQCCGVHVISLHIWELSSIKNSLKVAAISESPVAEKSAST

Ki (Thromboxane A2 receptor): 316 nM | Kp at 1 h [1]: 0.72 | solubility at 24 h [2]: 1050 µg/mL | Kp at 0.5 h [3]: 0.24 | Ki [4]: > 20 µM | solubility at 2 h [5]: 1030 µg/mL | clearance [6]: 11 mL/min/kg | CL (Liver microsomes [7]): 1.9 mL/min/g | Ki [8]: 12.6 µM | Fu (Blood): 0.5% | concentration at 1 h [9]: 25.9 µM | Ki [10]: > 20 µM | bioavailability [11]: 34% | CL (Liver microsomes [12]): 0.7 mL/min/g | Kp at 1 h [13]: 0.27 | Vd [14]: 1.9 L/kg | EC50 [15]: 3.98 µM | IC50 [16]: 15.8 nM | half-life [17]: 210 min | IC50 [18]: > 10 µM | Kp at 1 h [19]: 0.57
Compound: CC(C)COc1ccc(Cl)cc1-c1ccccc1-c1cccc(C(=O)[O-])n1.[Na+]
